≈ marks a conversion by molar mass, not a printed value. Structures can show the parent of a compound that is named as a salt.
How the values were obtained:
Type in all cases: cell-based
Aspergillus fumig. = assay: Antimycotic in-vitro activity, serial dilution test (MIC); settings: 96 h, Reihenverdünnungstest, 5 x 10^4 Keimen/ml Substrat, Sabourand's milieu d'epreuve, 20°C, 96 Stunden, read-out: MHK-Werte in γ/ml Nährmedium, Aspergillus fumig.
Method: (§1) Versuchsbeschreibung: • Die in-vitro-Prüfungen wurden im Reihenverdünnungstest mit Keiminokula von durchschnittlich 5 x 10^4 Keimen/ml Substrat durchgeführt. Als Nährmedium dienten • a) für Dermatophyten und Schimmelpilze: Sabourand's milieu d'epreuve • b) für Hefen: • Fleischextrakt-Traubenzucker-Bouillon.
(§2) Die Bebrütungstemperatur betrug 20°C, die Bebrütungsdauer lag bei 24 bis 96 Stunden bei Hefen und 96 Stunden bei Dermatophyten und Schimmelpilzen.

Microsporum canis = assay: as above; settings: 96 h, Reihenverdünnungstest, 5 x 10^4 Keimen/ml Substrat, Sabourand's milieu d'epreuve, 20°C, 96 Stunden, read-out: MHK-Werte in γ/ml Nährmedium, Microsporum canis
Method: as §1, §2

Candida albicans = assay: as above; settings: Reihenverdünnungstest, 5 x 10^4 Keimen/ml Substrat, Fleischextrakt-Traubenzucker-Bouillon, 20°C, 24 bis 96 Stunden, read-out: MHK-Werte in γ/ml Nährmedium, Candida albicans
Method: as §1, §2

Trichophyton mentagr. = assay: as above; settings: 96 h, Reihenverdünnungstest, 5 x 10^4 Keimen/ml Substrat, Sabourand's milieu d'epreuve, 20°C, 96 Stunden, read-out: MHK-Werte in γ/ml Nährmedium, Trichophyton mentagr.
Method: as §1, §2

Torulopsis glabrata = assay: as above; settings: Nakaseomyces glabratus; Reihenverdünnungstest, 5 x 10^4 Keimen/ml Substrat, Fleischextrakt-Traubenzucker-Bouillon, 20°C, 24 bis 96 Stunden; read-out: MHK-Werte in γ/ml Nährmedium, Torulopsis glabrata
Method: as §1, §2

[1] = tested on: Dermatophyten, Schimmelpilze, Hefen; assay: Antimycotic in-vitro activity, serial dilution test, overall comparison with prior art; settings: in-vitro Reihenverdünnungstest
Method: as §1, §2

Row | SMILES | MIC (Aspergillus fumig.) [µg/mL] | MIC (Microsporum canis) [µg/mL] | MIC (Candida albicans) [µg/mL] | MIC (Trichophyton mentagr.) [µg/mL] | MIC (Torulopsis glabrata) [µg/mL] | antimykotische Wirkung im Vergleich zu den bekannten Verbindungen (A) und (B) [1]
1 | CC(C)(Oc1ccc(Cl)cc1Cl)C(O)C(Cc1ccc(Cl)cc1)n1cncn1 (centres unmarked) [Beispiel 1, 5-(4-Chlorphenyl)-2-(2,4-dichlorphen-oxy)-2-methyl-4-(1,2,4-triazol-1-yl)-pentan-3-ol-hydrochlorid] | 64 | 64 | 16 | 2 | 64 | bessere antimykotische Wirkung
2 | CC(C)(COc1ccc(Cl)cc1)C(O)C(CC1CCCCC1)n1cncn1 (centres unmarked) [Beispiel 2, 1-(4-Chlorphenoxy)-5-cyclohexyl-2,2-dimethyl-4-(1,2,4-triazol-1-yl)-pentan-3-ol] | 2 (≈ 5.1 µM) | 2 (≈ 5.1 µM) | < 1 | < 1 | < 1 | bessere antimykotische Wirkung
3 | CC(C)(CSc1ccc(Cl)cc1)C(O)Cn1ccnc1 (centres unmarked) [Beispiel 3, 4-(4-Chlorphenylmercapto)-3,3-dimethyl-1-(imidazol-1-yl)-butan-2-ol] | 16 (≈ 51.5 µM) | 2 (≈ 6.43 µM) | 2 (≈ 6.43 µM) | 8 (≈ 25.7 µM) | 2 (≈ 6.43 µM) | bessere antimykotische Wirkung
4 | CC(C)(COc1ccc(Cl)cc1)C(O)Cn1cncn1 (centres unmarked) [Beispiel 4] | 16 (≈ 54.1 µM) | 8 (≈ 27 µM) | 32 (≈ 108 µM) | 16 (≈ 54.1 µM) | > 64 | bessere antimykotische Wirkung
5 | COCC(C)(C)C(O)C(Cc1ccc(Cl)cc1Cl)n1cncn1 (centres unmarked) [Beispiel 7] | 64 (≈ 179 µM) | 8 (≈ 22.3 µM) | 8 (≈ 22.3 µM) | 8 (≈ 22.3 µM) | 16 (≈ 44.7 µM) | bessere antimykotische Wirkung
6 | COCC(C)(C)C(O)C(Cc1ccc(Cl)cc1)n1cncn1 (centres unmarked) [Beispiel 9] | 16 (≈ 49.4 µM) | 4 (≈ 12.4 µM) | 8 (≈ 24.7 µM) | 4 (≈ 12.4 µM) | 32 (≈ 98.8 µM) | bessere antimykotische Wirkung
7 | Cc1ccc(CC(C(O)C(C)(C)COc2ccc(Cl)cc2)n2cncn2)cc1 (centres unmarked) [Beispiel 10] | 4 (≈ 10 µM) | < 1 | < 1 | < 1 | < 1 | bessere antimykotische Wirkung
8 | CC(C)(Oc1ccc(Cl)cc1Cl)C(O)C(Cc1ccc(Cl)cc1Cl)n1cncn1 (centres unmarked) [Beispiel 25] | > 64 | 8 (≈ 16.8 µM) | > 64 | < 1 | 64 (≈ 135 µM) | bessere antimykotische Wirkung
9 | CC(C)(Oc1ccc(Cl)cc1)C(O)C(Cc1ccccc1)n1cncn1 (centres unmarked) [Beispiel 26] | 8 (≈ 21.5 µM) | < 1 | < 1 | < 1 | 4 (≈ 10.8 µM) | bessere antimykotische Wirkung
10 | CC(C)(Oc1ccc(Cl)cc1)C(O)C(Cc1ccc(Cl)cc1Cl)n1cncn1 (centres unmarked) [Beispiel 27] | > 64 | 4 (≈ 9.08 µM) | < 1 | < 1 | < 1 | bessere antimykotische Wirkung
11 | CC(C)(Oc1ccc(Cl)cc1Cl)C(O)C(Cc1ccccc1)n1cncn1 (centres unmarked) [Beispiel 28] | 16 (≈ 39.4 µM) | 4 (≈ 9.84 µM) | 16 (≈ 39.4 µM) | 2 (≈ 4.92 µM) | 64 (≈ 158 µM) | bessere antimykotische Wirkung
12 | CC(C)(Oc1ccc(Cl)cc1)C(O)C(Cc1c(Cl)cccc1Cl)n1cncn1 (centres unmarked) [Beispiel 29] | > 64 | 4 (≈ 9.08 µM) | < 1 | < 1 | 4 (≈ 9.08 µM) | bessere antimykotische Wirkung
13 | CC(C)(Oc1ccc(Cl)cc1)C(O)C(CC1CCCCC1)n1cncn1 (centres unmarked) [Beispiel 31] | 8 (≈ 21.2 µM) | 32 (≈ 84.7 µM) | < 1 | 2 (≈ 5.29 µM) | 4 (≈ 10.6 µM) | bessere antimykotische Wirkung
14 | CC(C)(COc1ccc(Br)cc1)C(O)C(CC1CCCCC1)n1cncn1 (centres unmarked) [Beispiel 35] | < 1 | 8 (≈ 18.3 µM) | 32 (≈ 73.3 µM) | < 1 | < 1 | bessere antimykotische Wirkung
15 | CC(C)(CSc1ccccc1)C(O)C(Cc1ccc(Cl)cc1)n1cncn1 (centres unmarked) [Beispiel 37] | 64 (≈ 159 µM) | 4 (≈ 9.95 µM) | 4 (≈ 9.95 µM) | < 1 | 2 (≈ 4.98 µM) | bessere antimykotische Wirkung
16 | CC(C)(CSc1ccc(Cl)cc1)C(O)C(Cc1ccc(Cl)cc1)n1cncn1 (centres unmarked) [Beispiel 38] | 64 (≈ 147 µM) | < 1 | < 1 | < 1 | < 1 | bessere antimykotische Wirkung
17 | CC(C)(CSc1ccc(Cl)cc1)C(O)C(Cc1ccc(Cl)cc1Cl)n1cncn1 (centres unmarked) [Beispiel 39] | 64 (≈ 136 µM) | 16 (≈ 34 µM) | < 1 | < 1 | < 1 | bessere antimykotische Wirkung
18 | CC(C)(CSc1ccc(Cl)cc1)C(O)C(Cc1ccc(F)cc1)n1cncn1 (centres unmarked) [Beispiel 40] | < 1 | < 1 | < 1 | < 1 | 4 (≈ 9.52 µM) | 
19 | CCCCC(C(O)C(C)(C)CSc1ccc(Cl)cc1)n1cncn1 (centres unmarked) [Beispiel 41] | > 64 | < 1 | < 1 | < 1 | 2 (≈ 5.44 µM) | bessere antimykotische Wirkung
20 | CCOCC(C)(C)C(O)C(Cc1ccc(Cl)cc1)n1cncn1 (centres unmarked) [Beispiel 42] | 8 (≈ 23.7 µM) | 8 (≈ 23.7 µM) | 2 (≈ 5.92 µM) | < 1 | 16 (≈ 47.4 µM) | bessere antimykotische Wirkung
21 | CC(C)(COc1ccc(Br)cc1)C(O)C(CCOc1ccc(Cl)cc1Cl)n1cncn1 (centres unmarked) [Beispiel 45] | 32 (≈ 60.5 µM) | 8 (≈ 15.1 µM) | < 1 | < 1 | 4 (≈ 7.56 µM) | bessere antimykotische Wirkung
22 | CCCCC(C(O)C(C)(C)Oc1ccc(Cl)cc1Cl)n1cncn1 (centres unmarked) [Beispiel 51] | 8 (≈ 21.5 µM) | 2 (≈ 5.37 µM) | 2 (≈ 5.37 µM) | < 1 | 8 (≈ 21.5 µM) | bessere antimykotische Wirkung
23 | CCCCC(C(O)C(C)(C)Oc1ccc(Cl)cc1)n1cncn1 (centres unmarked) [Beispiel 52] | 16 (≈ 47.4 µM) | 2 (≈ 5.92 µM) | < 1 | 2 (≈ 5.92 µM) | 4 (≈ 11.8 µM) | bessere antimykotische Wirkung
24 | C=CCC(C(O)C(C)(C)Oc1ccc(Cl)cc1Cl)n1cncn1 (centres unmarked) [Beispiel 53] | 8 (≈ 22.5 µM) | 2 (≈ 5.61 µM) | 4 (≈ 11.2 µM) | 2 (≈ 5.61 µM) | 32 (≈ 89.8 µM) | bessere antimykotische Wirkung
25 | C=CCC(C(O)C(C)(C)Oc1ccc(Cl)cc1)n1cncn1 (centres unmarked) [Beispiel 56] | 8 (≈ 24.9 µM) | 4 (≈ 12.4 µM) | 4 (≈ 12.4 µM) | 8 (≈ 24.9 µM) | 8 (≈ 24.9 µM) | bessere antimykotische Wirkung
26 | CCC(C(O)C(C)(C)Oc1ccc(Cl)cc1)n1cncn1 (centres unmarked) [Beispiel 57] | 32 (≈ 103 µM) | 8 (≈ 25.8 µM) | 8 (≈ 25.8 µM) | 8 (≈ 25.8 µM) | 32 (≈ 103 µM) | bessere antimykotische Wirkung
27 | CCCCC(C(O)C(C)(C)Oc1ccc(C(=O)OCC)cc1)n1cncn1 (centres unmarked) [Beispiel 62] | 8 (≈ 21.3 µM) | 8 (≈ 21.3 µM) | 8 (≈ 21.3 µM) | 2 (≈ 5.33 µM) | 32 (≈ 85.2 µM) | bessere antimykotische Wirkung
28 | CCOC(=O)c1ccc(OC(C)(C)C(O)C(Cc2ccc(Cl)cc2Cl)n2cncn2)cc1 (centres unmarked) [Beispiel 64] | 64 (≈ 134 µM) | 2 (≈ 4.18 µM) | < 1 | 4 (≈ 8.36 µM) | 64 (≈ 134 µM) | bessere antimykotische Wirkung
29 | C=CCC(C(O)C(C)(C)Oc1ccc(Cl)cc1Cl)n1ccnc1 (centres unmarked) [Beispiel 66] | 16 (≈ 45 µM) | 8 (≈ 22.5 µM) | < 1 | 4 (≈ 11.3 µM) | 4 (≈ 11.3 µM) | bessere antimykotische Wirkung
30 | CCCCC(C(O)C(C)(C)Cc1ccc(Cl)cc1Cl)n1cncn1 (centres unmarked) [Beispiel 81] | < 1 | 2 (≈ 5.4 µM) | 2 (≈ 5.4 µM) | < 1 | 8 (≈ 21.6 µM) | bessere antimykotische Wirkung
